These results are taken from patent US20110028686A1, “Protein binding miniature proteins” (Yale University, priority 2000, published 2011).

Structures are written as SMILES. Square brackets hold non-standard residues; d marks the D form. Peptide text beside a SMILES is read from it. * marks the point of attachment. Fluorescein(5-NHCOCH2) = O=C(C*)Nc1ccc2c(c1)C(=O)OC21c2ccc(O)cc2Oc2cc(O)ccc21; pS = N[C@@H](COP(=O)(O)O)C(=O)O; Sar = CNCC(=O)O

A word on the Kd: it is a measure of binding affinity in units of concentration. Lower therefore signals a tighter complex.

The target of experiment [1] is T1, CBP KIX wild type (Mus musculus, UniProt P45481).
T1 construct: made in house; host or cells: E. coli BL21(DE3) pArg
T1 sequence (P45481 586-665 limits assumed): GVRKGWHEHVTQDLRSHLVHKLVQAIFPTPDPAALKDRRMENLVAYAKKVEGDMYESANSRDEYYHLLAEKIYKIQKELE
The experiment is described as follows: Equilibrium fluorescence polarization, wild type CBP KIX. The experiment is classed as binding. As to conditions: 25° C.

For experiment [2], the target named is T2, HisKIX (His-tagged CBP KIX domain) (Mus musculus, UniProt P45481).
T2 construct: The CBP KIX-coding region (residues 586 to 672) of pGEX-KT KIX 10-672; made in house; host or cells: E. coli BL21(DE3) pArg
T2 sequence (P45481 586-672): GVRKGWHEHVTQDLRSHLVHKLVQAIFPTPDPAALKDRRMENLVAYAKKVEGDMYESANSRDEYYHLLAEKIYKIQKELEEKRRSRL
The experiment is described as follows: Equilibrium fluorescence polarization, HisKIX binding. (Fluorescence polarisation rises when a labelled molecule tumbles more slowly, as on binding a larger partner.)

`CC[C@H](C)[C@H](NC(=O)[C@H](Cc1ccc(O)cc1)NC(=O)[C@H](C)NC(=O)[C@H](Cc1ccccc1)NC(=O)[C@H](COP(=O)(O)O)NC(=O)[C@H](CC(C)C)NC(=O)[C@H](CCCNC(=N)N)NC(=O)[C@H](CCCNC(=N)N)NC(=O)[C@@H](NC(=O)[C@@H]1CCCN1C(=O)[C@H](C)NC(=O)[C@H](CC(=O)O)NC(=O)[C@H](CC(=O)O)NC(=O)CNC(=O)[C@@H]1CCCN1C(=O)[C@H](Cc1ccc(O)cc1)NC(=O)[C@@H](NC(=O)[C@@H]1CCCN1C(=O)[C@H](CCC(N)=O)NC(=O)[C@H](CO)NC(=O)[C@@H]1CCCN1C(=O)CN)[C@@H](C)O)C(C)C)C(=O)N[C@@H](CC(C)C)C(=O)N[C@@H](CC(C)C)C(=O)N[C@@H](CC(=O)O)C(=O)N[C@@H](CC(C)C)C(=O)N[C@@H](Cc1ccc(O)cc1)C(=O)N[C@@H](CC(C)C)C(=O)N[C@@H](CC(=O)O)C(=O)N[C@@H](C)C(=O)N1CCC[C@H]1C(=O)NCC(=O)N[C@H](C(=O)N[C@@H](CSCC(=O)Nc1ccc2c(c1)C(=O)OC21c2ccc(O)cc2Oc2cc(O)ccc21)C(N)=O)C(C)C` [F20A] (H-GPSQPTYPGDDAPVRRL[pS]FAYILLDLYLDAPGVC(Fluorescein(5-NHCOCH2))-NH2) displayed a Kd in experiment [1] of 2550 ± 250 nM.

`CC[C@H](C)[C@H](NC(=O)[C@H](Cc1ccc(O)cc1)NC(=O)[C@H](Cc1ccccc1)NC(=O)[C@H](Cc1ccccc1)NC(=O)[C@H](COP(=O)(O)O)NC(=O)[C@H](C)NC(=O)[C@H](CCCNC(=N)N)NC(=O)[C@H](CCCNC(=N)N)NC(=O)[C@@H](NC(=O)[C@@H]1CCCN1C(=O)[C@H](C)NC(=O)[C@H](CC(=O)O)NC(=O)[C@H](CC(=O)O)NC(=O)CNC(=O)[C@@H]1CCCN1C(=O)[C@H](Cc1ccc(O)cc1)NC(=O)[C@@H](NC(=O)[C@@H]1CCCN1C(=O)[C@H](CCC(N)=O)NC(=O)[C@H](CO)NC(=O)[C@@H]1CCCN1C(=O)CN)[C@@H](C)O)C(C)C)C(=O)N[C@@H](CC(C)C)C(=O)N[C@@H](CC(C)C)C(=O)N[C@@H](CC(=O)O)C(=O)N[C@@H](CC(C)C)C(=O)N[C@@H](Cc1ccc(O)cc1)C(=O)N[C@@H](CC(C)C)C(=O)N[C@@H](CC(=O)O)C(=O)N[C@@H](C)C(=O)N1CCC[C@H]1C(=O)NCC(=O)N[C@H](C(=O)N[C@@H](CSCC(=O)Nc1ccc2c(c1)C(=O)OC21c2ccc(O)cc2Oc2cc(O)ccc21)C(N)=O)C(C)C` [L17A] (H-GPSQPTYPGDDAPVRRA[pS]FFYILLDLYLDAPGVC(Fluorescein(5-NHCOCH2))-NH2) showed a Kd in experiment [1] of 680 ± 50 nM. Turning to `CC[C@H](C)[C@H](NC(=O)[C@H](Cc1ccc(O)cc1)NC(=O)[C@H](Cc1ccccc1)NC(=O)[C@H](Cc1ccccc1)NC(=O)[C@H](COP(=O)(O)O)NC(=O)[C@H](CC(C)C)NC(=O)[C@H](CCCNC(=N)N)NC(=O)[C@H](CCCNC(=N)N)NC(=O)[C@@H](NC(=O)[C@@H]1CCCN1C(=O)[C@H](C)NC(=O)[C@H](CC(=O)O)NC(=O)[C@H](CC(=O)O)NC(=O)CNC(=O)[C@@H]1CCCN1C(=O)[C@H](Cc1ccc(O)cc1)NC(=O)[C@@H](NC(=O)[C@@H]1CCCN1C(=O)[C@H](CCC(N)=O)NC(=O)[C@H](CO)NC(=O)[C@@H]1CCCN1C(=O)CN)[C@@H](C)O)C(C)C)C(=O)N[C@@H](CC(C)C)C(=O)N[C@@H](C)C(=O)N[C@@H](CC(=O)O)C(=O)N[C@@H](CC(C)C)C(=O)N[C@@H](Cc1ccc(O)cc1)C(=O)N[C@@H](CC(C)C)C(=O)N[C@@H](CC(=O)O)C(=O)N[C@@H](C)C(=O)N1CCC[C@H]1C(=O)NCC(=O)N[C@H](C(=O)N[C@@H](CSCC(=O)Nc1ccc2c(c1)C(=O)OC21c2ccc(O)cc2Oc2cc(O)ccc21)C(N)=O)C(C)C` [L24A] (H-GPSQPTYPGDDAPVRRL[pS]FFYILADLYLDAPGVC(Fluorescein(5-NHCOCH2))-NH2), the equilibrium dissociation constant (Kd) in experiment [1] came out at 1160 ± 70 nM.

In the case of `CC[C@H](C)[C@H](NC(=O)[C@H](Cc1ccc(O)cc1)NC(=O)[C@H](Cc1ccccc1)NC(=O)[C@H](Cc1ccccc1)NC(=O)[C@H](COP(=O)(O)O)NC(=O)[C@H](CC(C)C)NC(=O)[C@H](CCCNC(=N)N)NC(=O)[C@H](CCCNC(=N)N)NC(=O)[C@@H](NC(=O)[C@@H]1CCCN1C(=O)[C@H](C)NC(=O)[C@H](CC(=O)O)NC(=O)[C@H](CC(=O)O)NC(=O)CNC(=O)[C@@H]1CCCN1C(=O)[C@H](Cc1ccc(O)cc1)NC(=O)[C@@H](NC(=O)[C@@H]1CCCN1C(=O)[C@H](CCC(N)=O)NC(=O)[C@H](CO)NC(=O)[C@@H]1CCCN1C(=O)CN)[C@@H](C)O)C(C)C)C(=O)N[C@@H](CC(C)C)C(=O)N[C@@H](CC(C)C)C(=O)N[C@@H](CC(=O)O)C(=O)N[C@@H](CC(C)C)C(=O)N[C@@H](Cc1ccc(O)cc1)C(=O)N[C@@H](C)C(=O)N[C@@H](CC(=O)O)C(=O)N[C@@H](C)C(=O)N1CCC[C@H]1C(=O)NCC(=O)N[C@H](C(=O)N[C@@H](CSCC(=O)Nc1ccc2c(c1)C(=O)OC21c2ccc(O)cc2Oc2cc(O)ccc21)C(N)=O)C(C)C` [L28A] (H-GPSQPTYPGDDAPVRRL[pS]FFYILLDLYADAPGVC(Fluorescein(5-NHCOCH2))-NH2), in experiment [1], the Kd is 830 ± 110 nM. Regarding `CC[C@H](C)[C@H](NC(=O)[C@H](Cc1ccc(O)cc1)NC(=O)[C@H](Cc1ccccc1)NC(=O)[C@H](Cc1ccccc1)NC(=O)[C@H](COP(=O)(O)O)NC(=O)[C@H](CC(C)C)NC(=O)[C@H](CCCNC(=N)N)NC(=O)[C@H](CCCNC(=N)N)NC(=O)[C@@H](NC(=O)[C@@H]1CCCN1C(=O)[C@H](C)NC(=O)[C@H](CC(=O)O)NC(=O)[C@H](CC(=O)O)NC(=O)CNC(=O)[C@@H]1CCCN1C(=O)[C@H](Cc1ccc(O)cc1)NC(=O)[C@@H](NC(=O)[C@@H]1CCCN1C(=O)[C@H](CCC(N)=O)NC(=O)[C@H](CO)NC(=O)[C@H](C)NC(=O)CN)[C@@H](C)O)C(C)C)C(=O)N[C@@H](CC(C)C)C(=O)N[C@@H](CC(C)C)C(=O)N[C@@H](CC(=O)O)C(=O)N[C@@H](CC(C)C)C(=O)N[C@@H](Cc1ccc(O)cc1)C(=O)N[C@@H](CC(C)C)C(=O)N[C@@H](CC(=O)O)C(=O)N[C@@H](C)C(=O)N1CCC[C@H]1C(=O)NCC(=O)N[C@H](C(=O)N[C@@H](CSCC(=O)Nc1ccc2c(c1)C(=O)OC21c2ccc(O)cc2Oc2cc(O)ccc21)C(N)=O)C(C)C` [P2A] (H-GASQPTYPGDDAPVRRL[pS]FFYILLDLYLDAPGVC(Fluorescein(5-NHCOCH2))-NH2), the affinity in experiment [1], expressed as Kd, was 870 ± 40 nM. Still for that read-out and setting: with `CC[C@H](C)[C@H](NC(=O)[C@H](Cc1ccc(O)cc1)NC(=O)[C@H](Cc1ccccc1)NC(=O)[C@H](Cc1ccccc1)NC(=O)[C@H](COP(=O)(O)O)NC(=O)[C@H](CC(C)C)NC(=O)[C@H](CCCNC(=N)N)NC(=O)[C@H](CCCNC(=N)N)NC(=O)[C@@H](NC(=O)[C@@H]1CCCN1C(=O)[C@H](C)NC(=O)[C@H](CC(=O)O)NC(=O)[C@H](CC(=O)O)NC(=O)CNC(=O)[C@@H]1CCCN1C(=O)[C@H](Cc1ccc(O)cc1)NC(=O)[C@@H](NC(=O)[C@@H]1CCCN1C(=O)[C@H](CCC(N)=O)NC(=O)[C@H](CO)NC(=O)CN(C)C(=O)CN)[C@@H](C)O)C(C)C)C(=O)N[C@@H](CC(C)C)C(=O)N[C@@H](CC(C)C)C(=O)N[C@@H](CC(=O)O)C(=O)N[C@@H](CC(C)C)C(=O)N[C@@H](Cc1ccc(O)cc1)C(=O)N[C@@H](CC(C)C)C(=O)N[C@@H](CC(=O)O)C(=O)N[C@@H](C)C(=O)N1CCC[C@H]1C(=O)NCC(=O)N[C@H](C(=O)N[C@@H](CSCC(=O)Nc1ccc2c(c1)C(=O)OC21c2ccc(O)cc2Oc2cc(O)ccc21)C(N)=O)C(C)C` [P2Z] (H-G[Sar]SQPTYPGDDAPVRRL[pS]FFYILLDLYLDAPGVC(Fluorescein(5-NHCOCH2))-NH2) the figure was 830 ± 80 nM.

`CC[C@H](C)[C@H](NC(=O)[C@H](Cc1ccc(O)cc1)NC(=O)[C@H](Cc1ccccc1)NC(=O)[C@H](Cc1ccccc1)NC(=O)[C@H](COP(=O)(O)O)NC(=O)[C@H](CC(C)C)NC(=O)[C@H](CCCNC(=N)N)NC(=O)[C@H](CCCNC(=N)N)NC(=O)[C@@H](NC(=O)[C@@H]1CCCN1C(=O)[C@H](C)NC(=O)[C@H](CC(=O)O)NC(=O)[C@H](CC(=O)O)NC(=O)CNC(=O)[C@@H]1CCCN1C(=O)[C@H](Cc1ccc(O)cc1)NC(=O)[C@@H](NC(=O)[C@H](C)NC(=O)[C@H](CCC(N)=O)NC(=O)[C@H](CO)NC(=O)[C@@H]1CCCN1C(=O)CN)[C@@H](C)O)C(C)C)C(=O)N[C@@H](CC(C)C)C(=O)N[C@@H](CC(C)C)C(=O)N[C@@H](CC(=O)O)C(=O)N[C@@H](CC(C)C)C(=O)N[C@@H](Cc1ccc(O)cc1)C(=O)N[C@@H](CC(C)C)C(=O)N[C@@H](CC(=O)O)C(=O)N[C@@H](C)C(=O)N1CCC[C@H]1C(=O)NCC(=O)N[C@H](C(=O)N[C@@H](CSCC(=O)Nc1ccc2c(c1)C(=O)OC21c2ccc(O)cc2Oc2cc(O)ccc21)C(N)=O)C(C)C` [P5A] (H-GPSQATYPGDDAPVRRL[pS]FFYILLDLYLDAPGVC(Fluorescein(5-NHCOCH2))-NH2): binding in experiment [1] was characterised by a dissociation constant (Kd) of 1020 ± 90 nM.

For `CC[C@H](C)[C@H](NC(=O)[C@H](Cc1ccc(O)cc1)NC(=O)[C@H](Cc1ccccc1)NC(=O)[C@H](Cc1ccccc1)NC(=O)[C@H](COP(=O)(O)O)NC(=O)[C@H](CC(C)C)NC(=O)[C@H](CCCNC(=N)N)NC(=O)[C@@H](N)CCCNC(=N)N)C(=O)N[C@@H](CC(C)C)C(=O)N[C@@H](CC(C)C)C(=O)N[C@@H](CC(=O)O)C(=O)N[C@@H](CC(C)C)C(=O)N[C@@H](Cc1ccc(O)cc1)C(=O)N[C@@H](CC(C)C)C(=O)N[C@@H](CC(=O)O)C(=O)N[C@@H](C)C(=O)N1CCC[C@H]1C(=O)NCC(=O)N[C@H](C(=O)N[C@@H](CSCC(=O)Nc1ccc2c(c1)C(=O)OC21c2ccc(O)cc2Oc2cc(O)ccc21)C(N)=O)C(C)C` [Peptide C, reference compound] (H-RRL[pS]FFYILLDLYLDAPGVC(Fluorescein(5-NHCOCH2))-NH2), the “fold higher HisKIX affinity than KID-B^P” value in experiment [2] is “greater than 20 fold”. In addition, the “ΔΔG of CBP KIX binding compared to KID-B of the same phosphorylation state” value in experiment [2] (listed as peptide C^P) was -1.8 kcal/mol; in experiment [2] (listed as peptide C^U), over -1.5 kcal/mol.
